This is an account of results in ChEMBL document CHEMBL2396558, “Orthogonal chemistry for the synthesis of thiocoraline-triostin hybrids. Exploring their structure-activity relationship” (2013).

Each structure is given as a SMILES string. Positions of bridges follow the written chain, without caps; N, C: chain ends. Non-standard residues stand in square brackets, D forms with d. Residues, ends and D or L forms follow the SMILES beside them. Chains are numbered I, II in the order given. *: point of attachment. Quinoxaline2carbonyl = O=C(c1cnc2ccccc2n1)*; NMeV = CN[C@H](C(=O)O)C(C)C; NMeC = CN[C@@H](CS)C(=O)O Some results are limits rather than exact numbers.

Holding throughout (format): functional
For one experiment, the system named is A549. The experiment is described as follows: Cytotoxicity against human A549 cells after 72 hrs by sulforhodamine B assay. Conditions: A549, 72 h; for CC50: read-out: LC50 (the source's name). For orientation: In SRB staining, fixed cells bind dye roughly in proportion to their protein.
Another experiment has as its system HT-29. In words: Cytotoxicity against human HT-29 cells after 72 hrs by sulforhodamine B assay. The conditions noted are these: HT-29, 72 h; for CC50: read-out: LC50 (the source's name).
The subject of a further experiment is MDA-MB-231. In words: Cytotoxicity against human MDA-MB-231 cells after 72 hrs by sulforhodamine B assay. Conditions: MDA-MB-231, 72 h.

By GI50 is commonly meant the concentration giving 50% growth inhibition. Lower therefore signals greater sensitivity of the cells. In general, TGI refers to the concentration at which net growth stops. For `CSC[C@H]1C(=O)N(C)C[C@@H](NC(=O)c2cnc3ccccc3n2)C(=O)NCC(=O)N(C)[C@H]2CSSC[C@@H](C(=O)N1C)N(C)C(=O)CNC(=O)[C@H](NC(=O)c1cnc3ccccc3n1)CN(C)C(=O)[C@H](CSC)N(C)C2=O`, in the experiment with A549, it took 0.0713 µM to inhibit growth by half (GI50), the TGI is more than 8.92 µM and the CC50 is more than 8.92 µM. Moreover, in the experiment on HT-29, the 50% growth inhibitory concentration (GI50) stood at 0.357 µM, the TGI was more than 8.92 µM and the CC50 was more than 8.92 µM. In the experiment on MDA-MB-231, this molecule returned a GI50 of 0.0473 µM, an LC50 (concentration killing 50% of cells) of more than 8.92 µM and a TGI of 1.43 µM.
Consider `CC(C)[C@H]1C(=O)N(C)C[C@@H](NC(=O)c2cnc3ccccc3n2)C(=O)N[C@@H](C)C(=O)N(C)[C@H]2CSSC[C@@H](C(=O)N1C)N(C)C(=O)[C@H](C)NC(=O)[C@H](NC(=O)c1cnc3ccccc3n1)CN(C)C(=O)[C@H](C(C)C)N(C)C2=O`, for which, in the experiment with A549, the GI50 is more than 8.98 µM, the TGI is more than 8.98 µM and the CC50 is more than 8.98 µM. Besides, in the experiment on HT-29, the GI50 came out at 8.44 µM, the total growth inhibition concentration (TGI) was more than 8.98 µM and the CC50 was more than 8.98 µM. Also, in the experiment with MDA-MB-231, the 50% growth inhibitory concentration (GI50) is 5.93 µM, the LC50 (concentration killing 50% of cells) was more than 8.98 µM and the TGI was more than 8.98 µM.
On to `CSC[C@H]1C(=O)N(C)C[C@@H](NC(=O)c2nc3ccccc3cc2O)C(=O)NCC(=O)N(C)[C@H]2CSSC[C@@H](C(=O)N1C)N(C)C(=O)CNC(=O)[C@H](NC(=O)c1nc3ccccc3cc1O)CN(C)C(=O)[C@H](CSC)N(C)C2=O`, for which, in the experiment with A549, the GI50 was 0.00339 µM, net growth stopped (TGI) at 0.02 µM and the CC50 was found to be 0.165 µM. Besides, the CC50 in the experiment with HT-29 came to 0.747 µM. In addition, in the experiment with MDA-MB-231, the GI50 worked out at 0.00408 µM, the LC50 (concentration killing 50% of cells) amounted to 0.373 µM and the total growth inhibition concentration (TGI) worked out at 0.0426 µM.
For the molecule `CC(C)[C@H]1C(=O)OC[C@@H](NC(=O)c2nc3ccccc3cc2O)C(=O)N[C@@H](C)C(=O)N(C)[C@H]2CSSC[C@@H](C(=O)N1C)N(C)C(=O)[C@H](C)NC(=O)[C@H](NC(=O)c1nc3ccccc3cc1O)COC(=O)[C@H](C(C)C)N(C)C2=O`, in the experiment with A549, the GI50 was more than 8.92 µM, the TGI is more than 8.92 µM and the CC50 is more than 8.92 µM. In the experiment on HT-29, the GI50 is more than 8.92 µM, the TGI is more than 8.92 µM and the CC50 was more than 8.92 µM. Besides, in the experiment on MDA-MB-231, the GI50 is more than 8.92 µM, the LC50 (concentration killing 50% of cells) is more than 8.92 µM and the TGI was more than 8.92 µM.
Consider `CSC[C@H]1C(=O)OC[C@@H](NC(=O)c2nc3ccccc3cc2O)C(=O)NCC(=O)N(C)[C@H]2CSSC[C@@H](C(=O)N1C)N(C)C(=O)CNC(=O)[C@H](NC(=O)c1nc3ccccc3cc1O)COC(=O)[C@H](CSC)N(C)C2=O`, for which, in the experiment with A549, it took 0.311 µM to inhibit growth by half (GI50), total growth inhibition (TGI) required 2.75 µM and the CC50 worked out at 7.91 µM. For the same molecule, in the experiment with HT-29, growth was halved (GI50) at 0.4 µM, the TGI is 3.55 µM and the CC50 worked out at 7.55 µM. Also, in the experiment with MDA-MB-231, the GI50 came out at 0.462 µM, the LC50 (concentration killing 50% of cells) came to 6.4 µM and the concentration for total growth inhibition (TGI) turned out to be 2.75 µM.
In the case of `CN1C[C@@H](NC(=O)c2nc3ccccc3cc2O)C(=O)NCC(=O)N(C)[C@H]2CSSC[C@@H](C(=O)N(C)[C@@H](CN)C1=O)N(C)C(=O)CNC(=O)[C@H](NC(=O)c1nc3ccccc3cc1O)CN(C)C(=O)[C@H](CN)N(C)C2=O`, in the experiment on A549, the GI50 is 8.95 µM, the total growth inhibition concentration (TGI) was determined as 8.95 µM and the CC50 is 8.95 µM. Besides, in the experiment with HT-29, the GI50 stood at 8.95 µM, the TGI came to 8.95 µM and the CC50 came to 8.95 µM. In the experiment on MDA-MB-231, this molecule yielded a 50% growth inhibitory concentration (GI50) of 8.95 µM, an LC50 (concentration killing 50% of cells) of 8.95 µM and a TGI of 8.95 µM.
As to `CN1C[C@@H](NC(=O)c2nc3ccccc3cc2O)C(=O)NCC(=O)N(C)[C@H]2CSSC[C@@H](C(=O)N(C)[C@@H](CCN)C1=O)N(C)C(=O)CNC(=O)[C@H](NC(=O)c1nc3ccccc3cc1O)CN(C)C(=O)[C@H](CCN)N(C)C2=O`, in the experiment with A549, the GI50 stood at 8.95 µM, the TGI is 8.95 µM and the CC50 came to 8.95 µM. In addition, in the experiment with HT-29, growth was halved (GI50) at 8.95 µM, the TGI amounted to 8.95 µM and the CC50 stood at 8.95 µM. Further, in the experiment with MDA-MB-231, the GI50 was 8.95 µM, the LC50 (concentration killing 50% of cells) turned out to be 8.95 µM and the TGI was determined as 8.95 µM.
For `COCCOCCOCC(=O)NC[C@H]1C(=O)N(C)C[C@@H](NC(=O)c2nc3ccccc3cc2O)C(=O)NCC(=O)N(C)[C@H]2CSSC[C@@H](C(=O)N1C)N(C)C(=O)CNC(=O)[C@H](NC(=O)c1nc3ccccc3cc1O)CN(C)C(=O)[C@H](CNC(=O)COCCOCCOC)N(C)C2=O`, in the experiment with A549, the GI50 was more than 7.09 µM, the TGI was more than 7.09 µM and the CC50 was more than 7.09 µM. Further, in the experiment on HT-29, the 50% growth inhibitory concentration (GI50) was more than 7.09 µM, the total growth inhibition concentration (TGI) was more than 7.09 µM and the CC50 is more than 7.09 µM. Besides, in the experiment with MDA-MB-231, the GI50 was more than 7.09 µM, the LC50 (concentration killing 50% of cells) was more than 7.09 µM and the TGI was more than 7.09 µM.
`COCCOCCOCC(=O)NCC[C@H]1C(=O)N(C)C[C@@H](NC(=O)c2nc3ccccc3cc2O)C(=O)NCC(=O)N(C)[C@H]2CSSC[C@@H](C(=O)N1C)N(C)C(=O)CNC(=O)[C@H](NC(=O)c1nc3ccccc3cc1O)CN(C)C(=O)[C@H](CCNC(=O)COCCOCCOC)N(C)C2=O`: in the experiment with A549, the GI50 is more than 6.96 µM, the concentration for total growth inhibition (TGI) was more than 6.96 µM and the CC50 was more than 6.96 µM. Further, in the experiment on HT-29, the GI50 was more than 6.96 µM, the TGI was more than 6.96 µM and the CC50 is more than 6.96 µM. Moreover, in the experiment on MDA-MB-231, the GI50 is more than 6.96 µM, the LC50 (concentration killing 50% of cells) was more than 6.96 µM and the total growth inhibition concentration (TGI) was more than 6.96 µM.
For `CSC[C@H]1C(=O)SC[C@@H](NC(=O)c2nc3ccccc3cc2O)C(=O)NCC(=O)N(C)[C@H]2SSC[C@@H](C(=O)N1C)N(C)C(=O)CNC(=O)[C@H](NC(=O)c1nc3ccccc3cc1O)CSC(=O)[C@H](CSC)N(C)C2=O` [THIOCORALINE], in the experiment on A549, the concentration for 50% growth inhibition (GI50) turned out to be 0.00622 µM, the TGI was found to be 0.0242 µM and the CC50 amounted to 0.095 µM. Besides, in the experiment on HT-29, the CC50 came out at 0.138 µM. Moreover, in the experiment with MDA-MB-231, it took 0.00207 µM to inhibit growth by half (GI50), the LC50 (concentration killing 50% of cells) was 0.0346 µM and the TGI is 0.0095 µM.
Regarding `CC(C)[C@H]1C(=O)OC[C@@H](NC(=O)c2cnc3ccccc3n2)C(=O)N[C@@H](C)C(=O)N(C)[C@H]2CSSC[C@@H](C(=O)N1C)N(C)C(=O)[C@H](C)NC(=O)[C@H](NC(=O)c1cnc3ccccc3n1)COC(=O)[C@H](C(C)C)N(C)C2=O` [TRIOSTIN] (I: Quinoxaline2carbonyl-[dS]A[NMeC][NMeV] / II: Quinoxaline2carbonyl-[dS]A[NMeC][NMeV]; ester I:1-II:C, I:C-II:1; disulfide I:3-II:3), in the experiment with A549, halving of growth (GI50) required 0.34 µM, the TGI was found to be 1.66 µM and the CC50 was more than 9.2 µM. In the experiment with HT-29, the GI50 amounted to 0.23 µM, the TGI came out at 2.85 µM and the CC50 was more than 9.2 µM. In the experiment with MDA-MB-231, this molecule returned a GI50 of 0.202 µM, an LC50 (concentration killing 50% of cells) of 1.56 µM and a TGI of 0.515 µM.
